Active and inactive are the calls of the source. Bounds are passed on as bounds.

This is an account of results in ChEMBL document CHEMBL1201862, “PubChem BioAssay data set” (2004).

The target of one assay is Cytochrome P450 2C19 (Homo sapiens, UniProt P33261). As to the kind of experiment: Cytochrome panel assay with activity outcomes. Panel member name: p450-cyp2c19 Compounds with AC50 equal or less than 10 uM are considered active. The class given is functional. As to conditions: read-out: AC50.
Cytochrome P450 2C19, sequence (P33261 whole entry): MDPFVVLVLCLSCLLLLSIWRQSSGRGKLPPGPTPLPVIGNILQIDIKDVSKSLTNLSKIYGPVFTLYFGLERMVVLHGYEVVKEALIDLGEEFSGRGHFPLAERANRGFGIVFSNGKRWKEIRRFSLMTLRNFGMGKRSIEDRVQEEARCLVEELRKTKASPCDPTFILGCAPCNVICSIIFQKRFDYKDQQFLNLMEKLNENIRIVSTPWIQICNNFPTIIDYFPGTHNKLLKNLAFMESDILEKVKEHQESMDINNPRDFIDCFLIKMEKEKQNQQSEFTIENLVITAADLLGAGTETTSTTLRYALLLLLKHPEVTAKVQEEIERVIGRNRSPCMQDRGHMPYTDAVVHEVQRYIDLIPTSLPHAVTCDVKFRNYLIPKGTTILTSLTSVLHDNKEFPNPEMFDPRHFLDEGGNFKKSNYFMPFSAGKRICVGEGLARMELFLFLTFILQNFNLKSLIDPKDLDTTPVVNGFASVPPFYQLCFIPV
In assay [1] the target is T1, Heat shock factor protein 1 (Mus musculus, UniProt P38532).
T1 sequence (P38532 whole entry): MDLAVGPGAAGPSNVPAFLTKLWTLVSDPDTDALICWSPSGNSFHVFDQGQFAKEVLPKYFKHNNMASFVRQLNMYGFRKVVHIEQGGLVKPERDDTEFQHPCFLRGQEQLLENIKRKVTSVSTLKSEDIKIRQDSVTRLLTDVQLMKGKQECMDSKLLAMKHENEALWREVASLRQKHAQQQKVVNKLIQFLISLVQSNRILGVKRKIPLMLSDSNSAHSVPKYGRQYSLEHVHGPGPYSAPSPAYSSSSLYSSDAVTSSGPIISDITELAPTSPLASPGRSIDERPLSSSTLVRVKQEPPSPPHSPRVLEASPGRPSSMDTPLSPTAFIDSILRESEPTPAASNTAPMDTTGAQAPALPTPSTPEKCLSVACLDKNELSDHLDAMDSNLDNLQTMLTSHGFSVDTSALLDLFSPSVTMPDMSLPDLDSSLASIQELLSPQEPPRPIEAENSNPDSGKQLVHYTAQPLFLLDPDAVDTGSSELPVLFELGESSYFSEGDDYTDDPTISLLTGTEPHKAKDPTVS
As to the kind of experiment: inhibition of MG132-induced HSE-luciferase signal, confirmation, cell-based, NIH3T3, luminescence, dose retest (AID 2382).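 Note: NIH3T3 fibroblasts with HSF1-driven luciferase reporter stressed by proteasome inhibitor MG132; luminescence from HSF1-driven luciferase expression after 8 hours of MG132 stress.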 The class given is functional.

The nature of assay [2]: cytotoxicity toward NIH3T3 fibroblasts, dose response, counter-screen, cell-based, ATP luminescence, mouse fibroblasts (AID 2010).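 Note: cells exposed to compound for about 90 hours before reading.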 It counts as functional. In general terms: The purpose of a counterscreen is to sort out artefacts and off-target activity.
Assay [3] is described as follows: inhibitors of intracellular T. cruzi replication, confirmation, NIH3T3 host cells, beta-gal luminescence (AID 2044).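 Note: intracellular parasites grown in NIH/3T3 mouse fibroblasts as host cells; luminescent beta-galactosidase reporter signal from transgenic T. cruzi replicating inside host cells; inhibitors lower the luminescence signal.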 The class given is functional, cell-based.
For assay [4], the target named is T1, Heat shock factor protein 1. Nature of the assay: HSF1 potentiators in luciferase reporter cells, confirmation, cell-based, NIH3T3, luminescence, dose retest (AID 435004).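 Note: stress induced by proteasome inhibitor MG132 added 30 min after compound; luciferase reporter driven by HSF1 response element in NIH3T3 cells; actives raise luminescence as potentiators of the MG132 stress response.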 It counts as functional. A general note: A reporter such as luciferase makes a cellular process visible.
Assay [5] in a line: Luminescence Cell-Based Dose Response HTS to Identify Inhibitors of 5'UTR Stem-Loop Driven Prion Protein mRNA Translation in H4 Neuroglioblastoma Cells. [Related pubchem assays: 1827 (Project Summary), 1813 (Primary HTS)]. It counts as functional.
Assay [6] can be described thus: inhibitors of firefly luciferase expression or activity, dose response, H4 neuroglioma cells, luminescence (AID 1990). The class given is functional, cell-based.
Assay [7] in a line: inhibitors of SNCA 5'UTR-driven reporter translation, confirmation, H4 neuroglioma cells, luminescence (AID 1988). The class given is functional, cell-based.
A further assay deals with Streptococcus. As to the kind of experiment: Group A Streptococcus viability loss, dose response, counter-screen for streptokinase expression inhibitor project, luminescence, BacTiterGlo (AID 1915).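 Note: potency for reduction of bacterial viability or growth.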 The class given is functional, organism-based.
In assay [8] the test system is Streptococcus sp. 'group A'. As to the kind of experiment: growth inhibition of control SK(-) GAS strain, dose response, counter-screen for streptokinase expression inhibitor project, luminescence, kanamycin, BacTiterGlo, confirmation (AID 1900). The class given is functional, organism-based.

In general, AC50 refers to the midpoint of the concentration-response curve, whichever way the signal moves. On to `COC(=O)c1sccc1NC(=O)c1cc(-c2ccc(C)cc2C)nc2ccccc12`, for which the AC50 at Cytochrome P450 2C19 is 3.55 µM (inconclusive).

Usually EC50 stands for the concentration that produces a half-maximal response. `O=C(CN1CC(c2ccccc2)CC1=O)NCc1ccc(F)cc1` (configuration not stated): the EC50 in assay [1] is listed as > 195 µM (not active).

With `Cc1cccc2c1NC(C)CC2C` (configuration not stated), the EC50 in assay [2] is > 30 µM (not active); in assay [3], 4.83 µM (active).

As to `Cc1cc(NC(=O)CCC(=O)N(CC(=O)NC2CCCC2)Cc2cccs2)no1`, the EC50 in [4] is > 260 µM (inactive).

Turning to `COc1ccc(CCNc2ncnc3c2c(C)c(C)n3CCO)cc1OC`, the EC50 in [4] was > 260 µM (inactive).

For the compound `Cc1c(Cl)cccc1N=C(S)N(Cc1cccnc1)Cc1ccccc1Cl`, the figures for the EC50 in assay [2] and in assay [3] were > 60 µM (not active) and 0.516 µM (active), respectively.

For the compound `CN1CCN(/N=C/c2cccc(Cl)c2Cl)CC1`, the EC50 is > 60 µM (not active) in [2] and 0.321 µM (active) in assay [3].

Take `CC(Nc1nc(-c2ccncc2)nc2ccccc12)c1ccccc1` (configuration not stated): the EC50 in assay [2] is 4.4 µM (active); in assay [3], 0.596 µM (active).

As to `CN1CCC(N(C)S(=O)(=O)c2ccc(C(C)(C)C)cc2)CC1`, the EC50 in [2] is 35.5 µM (active); in assay [3] it was 0.249 µM (active).

For `Cc1cc(C)n(-c2cc(N3CCN(S(=O)(=O)c4ccc5ccccc5c4)CC3)ccc2[N+](=O)[O-])n1`, the EC50 in assay [5] is 26.7 µM (active); in assay [6], 12 µM (active); in assay [7], 15.7 µM (active).

Consider `CCOc1cc(/C=C2\C(=N)N3N=C(C)SC3=NC2=O)ccc1OCCOc1ccccc1`, for which the EC50 in assay [1] was > 195 µM (not active).

In the case of `Cc1ccc2nc(-c3cccc(Br)c3)cc(C(=O)NCC3CCCO3)c2c1` (configuration not stated), the EC50 in [1] was > 195 µM (not active).

With `COc1ccc(-n2c(C)c(C)c3c(N)ncnc32)cc1`, the EC50 in [1] was 37.9 µM (active).

`O=C1Nc2ccccc2N(O)N1c1cc(-c2ccccc2Cl)no1`: the EC50 in assay [5] is 70.3 µM (active); in assay [6], 31.6 µM (active); in assay [7], > 120 µM (not active).

`Cc1ccc(OCC(O)CNCc2ccc(F)cc2)cc1` (configuration not stated): the values for the EC50 in [2] and in [3] were > 60 µM (not active) and 0.321 µM (active), respectively.

As for `O=C(NCCCN1CCOCC1)c1ccc([N+](=O)[O-])cc1[N+](=O)[O-]`, the EC50 in assay [2] is > 30 µM (not active); in assay [3] it was 0.582 µM (active).

As to `CC(=O)O[C@@]12CO[C@@H]1C[C@H](O)[C@@]1(C)C(=O)[C@H](O)C3=C(C)[C@@H](OC(=O)[C@H](O)[C@@H](NC(=O)OC(C)(C)C)c4ccccc4)C[C@](O)([C@@H](OC(=O)c4ccccc4)[C@H]21)C3(C)C`, the EC50 in [3] is < 0.1 µM (active).

As to `CCCN(CCC)S(=O)(=O)c1ccc(C(=O)Nc2nnc(COC)o2)cc1`, the results for the EC50 (with Streptococcus; in assay [8]) were 4.59 µM (active) and 5.99 µM (active), respectively.

Consider `NC(=O)c1c(NC(=O)Cc2ccccc2)sc2c1CCN(Cc1ccccc1)C2`, for which, in assay [4], the EC50 was > 260 µM (inactive).

In the case of `CCOc1ccc(C2=Nn3c(nnc3-c3cccnc3)SC2)cc1`, the EC50 in [5] is > 120 µM (not active); in assay [6], 16 µM (active); in assay [7], 37.8 µM (active).

`COC(=O)C1=C(Nc2ccc(C)cc2)C=C(C)C(C(=O)OC)C1c1cccc(OC)c1` (configuration not stated): the 50% effective concentration (EC50) in assay [2] is 6.59 µM (active); in [3], 2.26 µM (active).

Turning to `CC1CN(C(=O)c2ccccc2)/C(=N/c2cccc(S(=O)(=O)N(C)C)c2)S1` (configuration not stated), the EC50 in [5], in [6] and in [7] was > 120 µM (not active) in each case.

For `Cc1cccc(C)c1NC(=O)COc1ccccc1C(=O)Nc1ccc(Br)cn1`, the values for the EC50 in [5], in [6] and in [7] were > 120 µM (not active), > 120 µM (not active) and 94.5 µM (active), respectively.

As for `Cc1ccc(-c2csc3ncnc(-n4nnc5ccccc54)c23)cc1C`, the EC50 in assay [5] is > 120 µM (not active); in assay [6], 15 µM (active); in assay [7], > 60 µM (not active).

`Cc1noc(C)c1-c1cc(Nc2ccccc2)ncn1`: the AC50 at Cytochrome P450 2C19 is 20 µM (inconclusive).

Regarding `CC1CC(C)(C)N=C(S)N1CCC(=O)NCc1ccc(Cl)cc1` (configuration not stated), the EC50 in assay [5] was 33.7 µM (active); in [6], > 120 µM (not active); in assay [7], > 120 µM (not active).

For `CC(C)(CNC(=O)/C=C/c1ccc(F)cc1)CNC(=O)/C=C/c1ccc(F)cc1`, the EC50 in [4] is 3.75 µM (active).

For the compound `COc1ccc(NC(=O)CCc2nnc3ccc(NCc4ccc5c(c4)OCO5)nn23)cc1`, in [4], the EC50 was > 260 µM (inactive).

In the case of `O=c1c(-c2ccccc2)nc2cnc(N3CCNCC3)nc2n1C1CC1`, the AC50 at Cytochrome P450 2C19 is 39.8 µM (inconclusive).

As for `CCOC(=O)N1CCN(C(=O)c2ccc3nc4ccc(Cl)cc4c(=O)n3c2)CC1`, the results for the EC50 in assay [5], in assay [6] and in assay [7] were 37.5 µM (active), > 120 µM (not active) and 7.83 µM (active), respectively.

For the compound `CN(CCc1ccccc1)C(=O)c1cc(COc2cccc(C(F)(F)F)c2)on1`, in assay [4], the EC50 is > 260 µM (inactive).

In the case of `C=CCC(NCc1ccco1)c1ccc(OC)c(OC)c1` (configuration not stated), the EC50 in [4] is > 260 µM (inactive).

`COc1cc(O)cc2c1C(=O)OC(C)CCCC(=O)CCC/C=C\2` (configuration not stated): the EC50 in assay [4] is > 260 µM (inactive).

Regarding `COc1ccc(SCCc2ccncc2)cc1`, the EC50 was > 60 µM (not active) in [2] and 1.1 µM (active) in assay [3].

Consider `COc1ccc(C(=N)NOC(=O)c2ccc3c(c2)OCO3)cc1OC`, for which the EC50 in assay [2] was 27 µM (active); in assay [3], 2.5 µM (active).

On to `COc1cc2c(c(O)c1OC)C(=O)C(OC)CCC2` (configuration not stated), for which the AC50 on Cytochrome P450 2C19 was 6.31 µM (inconclusive).

Take `N#Cc1ccccc1Cn1cc(C(=O)c2ccccc2F)c2ccccc21`: the EC50 is > 120 µM (not active) in assay [5], 54.6 µM (active) in assay [6] and > 120 µM (not active) in [7].

For `CCN(CC)S(=O)(=O)N1CCC(C(=O)N2CCC3(CC2)OCCO3)CC1`, the EC50 in assay [5] was 17.6 µM (active); in [6], > 120 µM (not active); in assay [7], > 120 µM (not active).

Consider `O=C1NC(=O)N(c2ccccc2F)C(=O)/C1=C/NCCC1=CCCCC1`, for which the EC50 in assay [4] is > 260 µM (inactive).

`COc1ccc(C(C(=O)NC2CCCC2)N(C(=O)c2snc(-c3ccc(F)cc3)c2N)c2ccc(OC)cc2)cc1` (configuration not stated): the EC50 in assay [2] was > 60 µM (not active); in assay [3], 1.59 µM (active).

Turning to `Cn1cc(C(=O)N/N=C/c2cc(Br)cs2)c2ccccc21`, the EC50 in assay [4] was 42.9 µM (active).

Turning to `C[C@H]1[C@H](C)CC[C@]2(C(=O)O)CC[C@]3(C)C(=CC[C@@H]4[C@@]5(C)C[C@@H](O)[C@H](O)C(C)(C)[C@@H]5CC[C@]43C)[C@H]12` [COROSOLIC ACID], the EC50 was 2.79 µM (active) in the assay on Streptococcus and 2.92 µM (active) in assay [8].

As to `O=C(Cc1cccs1)N/N=C/c1ccco1`, the EC50 is 2.18 µM (active) in the assay with Streptococcus and 2.88 µM (active) in assay [8].

With `N#Cc1cccc(-c2nc(NCCN3CCOCC3)c3ccccc3n2)c1`, the AC50 on Cytochrome P450 2C19 was 15.8 µM (inconclusive).

As for `CCCCCn1c(SCc2cccc(C)c2)nc2c1c(=O)[nH]c(=O)n2C`, in assay [4], the EC50 is > 260 µM (inactive).

As to `Cc1ccc(S(=O)(=O)NCCOc2nc(N3CCOCC3)nc(N3CCOCC3)n2)cc1`, the EC50 in [4] is > 260 µM (inactive).

With `Cc1ccc(-n2nc3c(=O)n(CCCC(=O)NCc4ccc(Cl)cc4)nc(C)c3c2C)cc1`, the EC50 in assay [5] is > 120 µM (not active); in [6] it was 0.94 µM (active); in [7], 19.5 µM (active).

With `CCC1CCCCN1S(=O)(=O)c1ccc(C(=O)Nc2nnc(C3CC3)o2)cc1` (configuration not stated), the EC50 with Streptococcus was 7.56 µM (active); in assay [8], 4.34 µM (active).

Turning to `Cc1ccc(C(C)C)c(OCC(=O)Nc2ccc3c(c2)nc(CCN2CCCCC2)n3C)c1`, the results for the EC50 in assay [5], in assay [6] and in assay [7] were 35.8 µM (active), 10 µM (active) and 11.4 µM (active), respectively.

As for `COc1ccccc1N(CC(=O)N/N=C(\C)c1ccccc1O)S(=O)(=O)c1ccc(C)cc1`, the EC50 was 5.18 µM (active) in assay [2] and 4.7 µM (active) in assay [3].

As for `O=C(Nc1cccc(-c2nc3ncccc3o2)c1)c1ccco1`, the EC50 in [2] is > 60 µM (not active); in [3], 0.249 µM (active).
